Laboratory results reported in ChEMBL document CHEMBL1201862, “PubChem BioAssay data set” (2004).
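96-well plates; 48 h exposure; 5 concentrations. Endpoints by linear interpolation between flanking doses. Not reached: highest tested concentration assigned. At the GI50, growth is halved.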 Activity calls are given as the source filed them. No stated cut-off is given here; in the data, active = GI50 up to about 1.1 µM and inactive = higher.

How the values were obtained:
Assay in all cases: DTP human tumour cell line panel, 48 h
[1] = test system: 786-0
[2] = test system: A549
[3] = test system: ACHN
[4] = test system: BT-549
[5] = test system: CAKI-1
[6] = test system: CCRF-CEM
[7] = test system: COLO 205
[8] = test system: DU-145
[9] = test system: EKVX
[10] = test system: HCT-116
[11] = test system: HCT-15
[12] = test system: HL-60
[13] = test system: HOP-62
[14] = test system: HOP-92
[15] = test system: HT-29
[16] = test system: Hs-578T
[17] = test system: IGROV-1
[18] = test system: K562
[19] = test system: KM12
[20] = test system: LOX IMVI
[21] = test system: MCF7
[22] = test system: MDA-MB-231
[23] = test system: MDA-MB-435
[24] = test system: MDA-N
[25] = test system: MOLT-4
[26] = test system: Malme-3M
[27] = test system: NCI-H226
[28] = test system: NCI-H23
[29] = test system: NCI-H460
[30] = test system: NCI-H522
[31] = test system: NCI/ADR-RES
[32] = test system: OVCAR-3
[33] = test system: OVCAR-4
[34] = test system: OVCAR-5
[35] = test system: OVCAR-8
[36] = test system: PC-3
[37] = test system: RPMI-8226
[38] = test system: RXF 393
[39] = test system: SF-268
[40] = test system: SF-295
[41] = test system: SF-539
[42] = test system: SK-MEL-2
[43] = test system: SK-MEL-5
[44] = test system: SK-OV-3
[45] = test system: SN12C
[46] = test system: SNB-19
[47] = test system: SNB-75
[48] = test system: SR
[49] = test system: SW-620
[50] = test system: T47D
[51] = test system: TK-10
[52] = test system: U-251
[53] = test system: UACC-257
[54] = test system: UACC-62
[55] = test system: UO-31
[56] = test system: HCC 2998
[57] = test system: M14
[58] = test system: SK-MEL-28

COc1ccc(NC(=O)CC(=O)NN)cc1
GI50 [1]: > 100 µM (inactive) | GI50 [2]: > 100 µM (inactive) | GI50 [3]: > 100 µM (inactive) | GI50 [4]: > 100 µM (inactive) | GI50 [5]: > 100 µM (inactive) | GI50 [6]: > 100 µM (inactive) | GI50 [7]: > 100 µM (inactive) | GI50 [8]: > 100 µM (inactive) | GI50 [9]: > 100 µM (inactive) | GI50 [10]: > 100 µM (inactive) | GI50 [11]: > 100 µM | GI50 [12]: > 100 µM (inactive) | GI50 [13]: > 100 µM (inactive) | GI50 [14]: 64 µM (inactive) | GI50 [15]: > 100 µM (inactive) | GI50 [16]: > 100 µM (inactive) | GI50 [17]: > 100 µM (inactive) | GI50 [18]: > 100 µM (inactive) | GI50 [19]: > 100 µM (inactive) | GI50 [20]: > 100 µM (inactive) | GI50 [21]: > 100 µM (inactive) | GI50 [22]: > 100 µM (inactive) | GI50 [23]: > 100 µM (inactive) | GI50 [24]: > 100 µM (inactive) | GI50 [25]: > 100 µM (inactive) | GI50 [26]: > 100 µM (inactive) | GI50 [27]: > 100 µM (inactive) | GI50 [28]: > 100 µM (inactive) | GI50 [29]: > 100 µM (inactive) | GI50 [30]: > 100 µM (inactive) | GI50 [31]: > 100 µM (inactive) | GI50 [32]: > 100 µM (inactive) | GI50 [33]: > 100 µM (inactive) | GI50 [34]: > 100 µM (inactive) | GI50 [35]: > 100 µM (inactive) | GI50 [36]: > 100 µM (inactive) | GI50 [37]: > 100 µM (inactive) | GI50 [38]: > 100 µM (inactive) | GI50 [39]: > 100 µM (inactive) | GI50 [40]: > 100 µM (inactive) | GI50 [41]: > 100 µM (inactive) | GI50 [42]: > 100 µM (inactive) | GI50 [43]: > 100 µM (inactive) | GI50 [44]: > 100 µM (inactive) | GI50 [45]: > 100 µM (inactive) | GI50 [46]: > 100 µM (inactive) | GI50 [47]: > 100 µM (inactive) | GI50 [48]: > 100 µM (inactive) | GI50 [49]: > 100 µM (inactive) | GI50 [50]: > 100 µM (inactive) | GI50 [51]: > 100 µM (inactive) | GI50 [52]: > 100 µM (inactive) | GI50 [53]: > 100 µM (inactive) | GI50 [54]: > 100 µM (inactive) | GI50 [55]: > 100 µM (inactive)

COc1c2c(cc3occ(-c4ccc(CC=C(C)C)cc4)c(=O)c13)OC(C)(C)C=C2
GI50 [1]: 84.1 µM (inactive) | GI50 [2]: 30.1 µM (inactive) | GI50 [3]: 77.6 µM (inactive) | GI50 [4]: 76.2 µM (inactive) | GI50 [5]: > 100 µM (inactive) | GI50 [6]: 12.8 µM (inactive) | GI50 [7]: 43.4 µM (inactive) | GI50 [8]: 84.7 µM (inactive) | GI50 [9]: 28.4 µM (inactive) | GI50 [56]: 59.2 µM (inactive) | GI50 [10]: 26.4 µM (inactive) | GI50 [11]: 45.9 µM | GI50 [12]: 10.3 µM (inactive) | GI50 [13]: > 100 µM (inactive) | GI50 [15]: 26.9 µM (inactive) | GI50 [16]: 85.1 µM (inactive) | GI50 [17]: > 100 µM (inactive) | GI50 [18]: 10.6 µM (inactive) | GI50 [19]: 41.4 µM (inactive) | GI50 [20]: 23.6 µM (inactive) | GI50 [57]: 34.3 µM (inactive) | GI50 [21]: 31 µM (inactive) | GI50 [22]: > 100 µM (inactive) | GI50 [23]: 27 µM (inactive) | GI50 [24]: 44.6 µM (inactive) | GI50 [25]: 10.7 µM (inactive) | GI50 [26]: 60.5 µM (inactive) | GI50 [27]: 48.1 µM (inactive) | GI50 [28]: 25.8 µM (inactive) | GI50 [30]: 13.9 µM (inactive) | GI50 [31]: 18.2 µM (inactive) | GI50 [32]: 10.3 µM (inactive) | GI50 [33]: > 10 µM (inactive) | GI50 [34]: > 100 µM (inactive) | GI50 [35]: 48.4 µM (inactive) | GI50 [36]: 17.1 µM (inactive) | GI50 [37]: 6.97 µM (inactive) | GI50 [38]: 43.4 µM (inactive) | GI50 [39]: > 100 µM (inactive) | GI50 [40]: 35.4 µM (inactive) | GI50 [58]: > 100 µM (inactive) | GI50 [42]: 11.2 µM (inactive) | GI50 [43]: 11.7 µM (inactive) | GI50 [44]: > 100 µM (inactive) | GI50 [45]: 84.1 µM (inactive) | GI50 [46]: 61.1 µM (inactive) | GI50 [47]: 60.1 µM (inactive) | GI50 [48]: 8.55 µM (inactive) | GI50 [49]: 45.6 µM (inactive) | GI50 [50]: 16.5 µM (inactive) | GI50 [51]: 81.8 µM (inactive) | GI50 [52]: 33.7 µM (inactive) | GI50 [53]: 39.4 µM (inactive) | GI50 [54]: > 100 µM (inactive) | GI50 [55]: 33.1 µM (inactive)
